Measurements from patent publication US4605649A, “Method of treatment of estrogen deficiency disease” (priority 1984, dated 1986).
Read-outs that look alike come from different tables or passages of the source.

Key:
[1] = system: testes of male Syrian hamsters; assay: Testes weight of male hamsters after s.c. estrogen implant (estrogenicity); format: in vivo; settings: for Range Of Testes Weight Of Male Hamsters: 25 mg s.c. pellet (90% estrogen), second pellet at 106 days, four animals per group
Protocol: In a second method, the weights of both testes of those male Syrian hamsters which were used in the in vivo carcinogenicity assay, were measured on the 224th day after s.c. implantation of 25 mg. pellets of estrogen. The weights were measured in grams (expressed as percent of total body weight).
(§1) Male Syrian hamsters, 3-4 weeks of age (Harlan/Sprague Dawley, Madison, Wis.), were given a 25 mg. s.c. implant consisting of 10% cholesterol and 90% estrogen. A second 25 mg. pellet of the same composition was implanted 106 days after the initial estrogen treatment. Estrogen treatment was carried out according to the procedure of Kirkman--National Cancer Institute Monograph, 2, 1-57 (1959). Control animals were left untreated. Two hundred twenty-four days after treatment with estrogens had begun, hamsters were weighed, killed, both testes were excised and their weights measured in grams. Data presented in Table 1 are the ranges of testes weights from four animals in each group. Weights are expressed as percentages of total body weights.

[2] = system: renal clear cell carcinoma; assay: In vivo carcinogenicity: renal clear-cell carcinoma in male Syrian hamsters
Protocol: as §1
The carcinogenicity of the modified estrogens was measured in male Syrian hamsters in vivo. Estrogen, and estrogen alone, causes renal clear cell carcinoma in 100% of the male animal population when exposed to s.c. estrogen implants. This kidney tumor is estrogen-induced and estrogen-dependent for development and growth. Failure to resupply estrogen every three months or surgical removal of implants results in tumor regression within a few weeks. […] The spontaneous kidney tumor incidence in Syrian hamsters without estrogen treatment is very low. The above facts are fully discussed in Kirkman, Nat'l. Can. Inst. Monograph, 1, 1 (1959); McGregor et al., J. Nat'l. Can. Inst., 24, 1057 (1960) and Sirbasku et al., Endocrin., 98, 1260 (1976).
The protocol employed was that set out for determining estrogen activity in male hamsters according to Table 1 (in that the animals examined for tumors at 224 days were the source of the testes). In the carcinogenicity experiment, further groups of animals were examined at 279 and 345 days. The animals were decapitated, the kidneys were excised and inspected visually for the occurrence of renal celear-cell carcinoma. Sections were prepared of all kidneys and studied histologically. In the table, column 1 gives the name of the compound, column 2 the total number of animals, column 3, the number of dead or lost animals and columns 4, 5 and 6 results of histologic examination of animals at the specified time interval for renal clear-cell carcinoma.

[3] = system: estrogen receptor; settings: relative to estradiol = 100; Heiman et al., J. Med. Chem., 23, 994 (1980); cited from earlier work
[4] = system: estrogen receptor; settings: cytosol of hypothalamus-preoptic area, pituitary, uterus; Pfeiffer et al. (1982); cited from earlier work
[5] = system: catechol estrogen formation; settings: cited from earlier work
[6] = system: estrogenic activity; settings: catechol metabolites; cited from earlier work
[7] = system: protein or peptides; settings: cited from earlier work
[8] = system: DNA; settings: cited from earlier work
[9] = system: tumors in experimental animals; settings: prolonged treatment; testes, endometrium, ovary, cervix, mammary and other tissues; cited from earlier work
[10] = 224 days after s.c. implantation of estrogen
[11] = 279 days after s.c. implantation of estrogen
[12] = 345 days after s.c. implantation of estrogen

Compound	Range Of Testes Weight Of Male Hamsters ([1]; 224 days)	No. of Animals with Tumors/No. of Animals Examined [2, 10]	No. of Animals with Tumors/No. of Animals Examined [2, 11]	No. of Animals with Tumors/No. of Animals Examined [2, 12]	estrogenic activity [6]	tumor induction [9]	other results
C[C@]12CC[C@@H]3c4cc(F)c(O)cc4CC[C@H]3[C@@H]1CC[C@@H]2O [2-fluoro-β-estradiol, 2-fluoro-3,17β-estradiol]	0.18-0.25 % Of Total Body Weight	0/4	0/4	0/3	–	–	estrogenicity (conclusion) ([1]; in words, hamster model): highly estrogenic; potential for induced renal clear cell carcinomas ([2]; in words, compared with estradiol or 4-fluoro-β-estradiol at equal estrogen dosages): greatly decreased potential; carcinogenicity (conclusion) ([2]; in words, particular animal model): non-carcinogenic; estrogen receptor binding affinity, ratio of association constants (Ka compound/Ka estradiol)×100 [3]: 86; estrogen receptor affinity [4]: high receptor affinity; catechol estrogen formation [5]: reduced catechol estrogen formation
C[C@]12CC[C@@H]3c4cc(O)c(O)cc4CC[C@H]3[C@@H]1CC[C@@H]2O [2-hydroxyestradiol]	–	–	–	–	almost devoid of estrogenic activity	–	covalent binding to protein or peptides ([7]; in vitro): bind covalently; covalent binding to DNA ([8]; in vitro): bind covalently
C[C@]12CC[C@@H]3c4cc(O)c(O)cc4CC[C@H]3[C@@H]1CCC2=O [2-hydroxyestrone]	–	–	–	–	almost devoid of estrogenic activity	–	covalent binding to protein or peptides [7]: bind covalently; covalent binding to DNA [8]: bind covalently
C[C@]12CC[C@@H]3c4ccc(O)c(F)c4CC[C@H]3[C@@H]1CC[C@@H]2O [4-fluoro-β-estradiol]	0.18-0.28 % Of Total Body Weight	1/4	3/6	0/3	–	–	animals judged histologically to be preneoplastic ([2]; 224 days): 2 of 4; estrogen receptor binding affinity, ratio of association constants (Ka compound/Ka estradiol)×100 [3]: 128; estrogen receptor affinity [4]: high receptor affinity; catechol estrogen formation ([5]; Krey et al. (1983)): reduced catechol estrogen formation
C[C@]12CC[C@@H]3c4ccc(O)c(O)c4CC[C@H]3[C@@H]1CC[C@@H]2O [4-hydroxyestradiol]	–	–	–	–	almost devoid of estrogenic activity	–	covalent binding to protein or peptides ([7]; in vitro): bind covalently; covalent binding to DNA ([8]; in vitro): bind covalently
C[C@]12CC[C@@H]3c4ccc(O)c(O)c4CC[C@H]3[C@@H]1CCC2=O [4-hydroxyestrone]	–	–	–	–	almost devoid of estrogenic activity	–	covalent binding to protein or peptides [7]: bind covalently; covalent binding to DNA [8]: bind covalently
CC/C(=C(/CC)c1ccc(O)cc1)c1ccc(O)cc1 [DES, diethylstilbestrol]	–	–	–	–	–	increase the number of tumors	–
C[C@]12CC[C@@H]3c4ccc(O)cc4CC[C@H]3[C@@H]1CC[C@@H]2O [estradiol]	0.12-0.26 % Of Total Body Weight	4/4	5/5	0/4	–	induce tumors	testes weight relative to untreated hamsters ([1]; 224 days, shrinking to % of the weights of testes in untreated hamsters): approximately 10%
C[C@]12CC[C@@H]3c4ccc(O)cc4CC[C@H]3[C@@H]1C[C@@H](O)[C@@H]2O [estriol]	–	–	–	–	–	induce tumors	–
C[C@]12CC[C@@H]3c4ccc(O)cc4CC[C@H]3[C@@H]1CCC2=O [estrone]	–	–	–	–	–	induce tumors	–
